The subject of the experiment is Prolin- und Lysinhydroxylase. Nature of the experiment: CCl4-induced liver injury (fibrosis) in rats: collagen markers after treatment with the compound. It is filed as in vivo, Ratten. As to conditions: rats given CCl4, then compound, Dosierung 2 x 25 mg. The text has this: Die Aktivität der Fibrogenase kann durch radioimmunologische Bestimmung des N-terminalen Propeptids des Kollagens Typ III oder der N- bzw. C-terminalen Quervernetzungsdomäne des Kollagens Typ IV (7s-Kollagen bzw. Typ-IV-Kollagen-NC₁) im Serum bestimmt werden.
Zu diesem Zweck wurden die Hydroxyprolin-, Prokollagen-III-Peptid-, 7s-Kollagen- und Typ-IV-Kollagen-NC₁-Konzentrationen in der Leber von • a) unbehandelten Ratten (Kontrolle) • b) Ratten, denen Tetrachlorkohlenstoff verabreicht wurde (CCl₄-Kontrolle) • c) Ratten, denen zunächst CCl₄ und anschließend eine erfindungsgemäße Verbindung verabreicht wurde gemessen (diese Testmethode wird beschrieben von Rouiller, C., experimental toxic injury of the liver; in The Liver, C. Rouiller, Vol. 2, S. 335-476, New York, Academic Press, 1964).
Die pharmakologische Wirksamkeit der erfindungsgemäßen Substanzen wurde in einer Versuchsreihe (s. Tabelle 1) untersucht. Dabei zeigte sich eine deutliche Hemmung der Prolin- und Lysinhydroxylase.

For the molecule `COC(=O)C(C)(C)COC(=O)c1ccc(C(=O)OCC(C)(C)C(=O)OC)nc1` [compound 4, Pyridin-2,5-dicarbonsäure-bis(2-methoxycarbonyl-2,2-dimethylethyl)ester], the Hydroxy-prolin (CCl4-Kontrolle 0.773, Kontrolle 0.289) came to 0.482 µg/mg Leber. The Prokollagen-III-Peptid (CCl4-Kontrolle 73.9, Kontrolle 11.1) was 37.2 ng/mL. The molecule also registered a Typ-IV-Kollagen-NC1 (CCl4-Kontrolle 168.4, Kontrolle 23.5) of 100.8 ng/mL. Moreover, the 7s-Kollagen (CCl4-Kontrolle 308.7, Kontrolle 22.8) stood at 121.4 ng/mL.

The values are drawn from patent EP0278452A2, “2,4- and 2,5-Pyridine-dicarboxylic-acid derivatives, process for their preparation, their use and medicines based on these compounds” (HOECHST AKTIENGESELLSCHAFT, priority 1987, dated 1988).
